# Patent publication US20220041641A1, “QUATERNARY AMMONIUM SALTS AS INHIBITORS OF TRIMETHYLAMINE PRODUCTION” (Senda Biosciences, Inc., priority 2018, published 2022)
# Several values for one entry are separate records, joined by “and”; a condition that tells them apart may be missing. Equal values may be shown once. Read-outs that look alike come from different tables or passages of the source.
# Key:
# [1] = Caco-2 permeability assay; assay type: in vitro ADME; settings: human
# Protocol: Preparation of Caco-2 Cells: 50 μL and 25 mL of cell culture medium were added to each well of the Transwell insert and reservoir, respectively. The HTS transwell plates were incubated at 37° C., 5% CO2 for 1 hour before cell seeding. […] Cell culture medium was replaced every other day, beginning no later than 24 hours after initial plating.
# Assessment of Cell Monolayer Integrity: Medium was removed from the reservoir and each Transwell insert and replaced with prewarmed fresh culture medium. Transepithelial electrical resistance (TEER) across the monolayer was measured using Millicell Epithelial Volt-Ohm measuring system (Millipore, USA). The Plate was returned to the incubator once the measurement was done. The TEER value was calculated according to the following equation: […]
# Preparation of Solutions: 2 mM stock solutions in DMSO of control compounds were prepared and diluted with HBSS (10 mM HEPES, pH 7.4) to get 10 μM working solution. 0.2 mM stock solutions of test compounds in DMSO were prepared and diluted with HBSS (10 mM HEPES, pH 7.4 with 0.5% BSA) to get 1 μM working solution. Metoprolol, erythromycin and cimetidine were used as control compounds.
# The Caco-2 plate was removed from the incubator. The monolayer was washed twice with pre-warmed HBSS (10 mM HEPES, pH 7.4). The plate was incubated at 37° C. for 30 minutes. To determine the rate of drug transport in the apical to basolateral direction, 125 μL of the working solution was added to the Transwell insert (apical compartment). A 50 μL sample was transferred immediately from the apical compartment to 200 μL of acetonitrile containing IS (100 nM alprazolam, 200 nM Caffeine and 100 nM tolbutamide) in a new 96-well plate as the initial donor sample (A-B) and it was vortexed at 1000 rpm for 10 minutes. The wells in the receiver plate (basolateral compartment) were filled with 235 μL of transport buffer. To determine the rate of drug transport in the basolateral to apical direction, 285 μL of the working solution were added to the receiver plate wells (basolateral compartment). A 50 μL sample was transferred immediately from the basolateral compartment to 200 μL of acetonitrile containing IS (100 nM alprazolam, 200 nM Caffeine and 100 nM tolbutamide) in a new 96-well plate as the initial donor sample (B-A) and it was vortexed at 1000 rpm for 10 minutes. The Transwell insert (apical compartment) was filled with 75 μL of transport buffer. The apical to basolateral direction and the basolateral to apical direction need to be done at the same time. The plates were incubated at 37° C. for 2 hours. At the end of the incubation, 50 μL samples from donor sides (apical compartment for Ap→Bl flux, and basolateral compartment for B1→Ap) and receiver sides (basolateral compartment for Ap→Bl flux, and apical compartment for B1→Ap) were transferred to wells of a new 96-well plate, followed by the addition of 4 volume of acetonitrile containing IS (100 nM alprazolam, 200 nM Caffeine and 100 nM tolbutamide). Samples were vortexed for 10 minutes, 50 μL samples were transferred to wells of a new 96-well plate, followed by the addition of 50 μL Hepes and 200 μL IS. All samples were vortexed for 10 minutes, and then centrifuged at 3,220 g for 40 minutes. An aliquot of 150 μL of the supernatant was mixed with an appropriate volume of ultra-pure water before LC-MS/MS analysis.
# Apparent permeability (Papp) can be calculated for drug transport assays using the following equation: […]
# Papp is apparent permeability (cm/s×10^−6);
# Papp (B-A) indicates the apparent permeability coefficient in basolateral to apical direction, and
# Papp (A-B) indicates the apparent permeability coefficient in apical to basolateral direction.
# [2] = target: CutC from Proteus mirabilis (Proteus mirabilis, UniProt B4EYG1); test: Cell-based assay for TMA production from a native producer (P. mirabilis); settings: d9-TMA from 1 mM d9-choline, 5 h, 37° C.; value 10 given when no fit or % TMA remaining at 10 μM higher than 15%; read-out: Average IC50 Whole cell P. mirabilis
# Chain of CutC from Proteus mirabilis (B4EYG1 entry or part of it): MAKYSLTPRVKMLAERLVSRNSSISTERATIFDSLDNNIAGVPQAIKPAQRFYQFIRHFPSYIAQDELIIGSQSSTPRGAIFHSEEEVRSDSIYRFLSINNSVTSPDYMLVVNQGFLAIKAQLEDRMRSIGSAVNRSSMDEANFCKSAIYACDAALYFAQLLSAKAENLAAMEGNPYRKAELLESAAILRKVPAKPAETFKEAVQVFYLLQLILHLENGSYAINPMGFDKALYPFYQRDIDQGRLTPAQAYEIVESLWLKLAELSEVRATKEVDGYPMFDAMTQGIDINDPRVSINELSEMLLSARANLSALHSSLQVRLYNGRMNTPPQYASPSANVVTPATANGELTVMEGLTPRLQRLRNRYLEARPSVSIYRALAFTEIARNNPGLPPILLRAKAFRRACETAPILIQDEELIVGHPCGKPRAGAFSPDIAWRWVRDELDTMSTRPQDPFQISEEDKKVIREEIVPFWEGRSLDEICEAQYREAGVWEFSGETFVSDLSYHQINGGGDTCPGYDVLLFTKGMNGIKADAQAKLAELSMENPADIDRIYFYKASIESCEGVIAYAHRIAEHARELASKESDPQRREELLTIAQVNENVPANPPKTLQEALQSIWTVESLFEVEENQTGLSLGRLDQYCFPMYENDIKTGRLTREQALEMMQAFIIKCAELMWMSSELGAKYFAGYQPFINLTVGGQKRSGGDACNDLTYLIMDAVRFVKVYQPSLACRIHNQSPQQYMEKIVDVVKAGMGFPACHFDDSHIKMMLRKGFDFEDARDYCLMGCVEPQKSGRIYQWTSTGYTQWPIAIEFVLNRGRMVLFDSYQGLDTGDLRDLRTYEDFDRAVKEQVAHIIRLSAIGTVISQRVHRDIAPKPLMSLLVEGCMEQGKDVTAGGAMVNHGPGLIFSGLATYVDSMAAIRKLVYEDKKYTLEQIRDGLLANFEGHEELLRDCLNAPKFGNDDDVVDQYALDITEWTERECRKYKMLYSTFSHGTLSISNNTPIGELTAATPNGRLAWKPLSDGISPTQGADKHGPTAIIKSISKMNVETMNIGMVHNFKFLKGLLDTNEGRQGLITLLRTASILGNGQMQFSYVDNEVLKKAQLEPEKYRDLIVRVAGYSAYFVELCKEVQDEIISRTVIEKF
# Chain of CutC from Proteus mirabilis (B4EYG0 entry or part of it, further chain): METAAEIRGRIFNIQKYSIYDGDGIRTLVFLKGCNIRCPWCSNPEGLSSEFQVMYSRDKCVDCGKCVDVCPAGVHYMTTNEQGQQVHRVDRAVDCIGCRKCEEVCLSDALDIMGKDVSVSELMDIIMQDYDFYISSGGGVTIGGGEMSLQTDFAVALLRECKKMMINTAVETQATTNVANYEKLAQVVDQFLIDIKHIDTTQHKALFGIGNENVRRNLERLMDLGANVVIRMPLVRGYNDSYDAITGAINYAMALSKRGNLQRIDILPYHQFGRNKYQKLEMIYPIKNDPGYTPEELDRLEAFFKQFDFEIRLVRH
# Summary of the method: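 Overnight anaerobic cultures of P. mirabilis or C. sporogenes, grown in BHI with 1 mM choline, were diluted and given 1 mM (trimethyl-d9)-choline plus compound at 10 μM final. After 5 h at 37° C., d9-TMA was quantified by LCMS.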
# [3] = target: CutC from Clostridium sporogenes (Clostridium sporogenes, UniProt A0AAE4Z0A8); test: Cell-based assay for TMA production from a native producer (C. sporogenes); settings: read-out: IC50 Whole cell C. sporogenes; d9-TMA from 1 mM d9-choline, 5 h, 37° C.; run once; value 10 given when no fit or % TMA remaining at 10 μM higher than 15%
# Chain of CutC from Clostridium sporogenes (A0ABD6RTF0 entry or part of it): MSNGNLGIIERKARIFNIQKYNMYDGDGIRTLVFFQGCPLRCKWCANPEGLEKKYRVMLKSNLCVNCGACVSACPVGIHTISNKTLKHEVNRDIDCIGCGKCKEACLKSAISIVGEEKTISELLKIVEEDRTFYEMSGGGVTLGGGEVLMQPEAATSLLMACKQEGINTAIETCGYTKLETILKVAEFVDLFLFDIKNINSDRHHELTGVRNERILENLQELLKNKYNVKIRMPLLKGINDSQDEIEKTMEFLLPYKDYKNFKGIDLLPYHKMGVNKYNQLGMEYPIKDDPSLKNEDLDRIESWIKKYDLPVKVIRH
# Chain of CutC from Clostridium sporogenes (A0AAE4Z0A8 entry or part of it): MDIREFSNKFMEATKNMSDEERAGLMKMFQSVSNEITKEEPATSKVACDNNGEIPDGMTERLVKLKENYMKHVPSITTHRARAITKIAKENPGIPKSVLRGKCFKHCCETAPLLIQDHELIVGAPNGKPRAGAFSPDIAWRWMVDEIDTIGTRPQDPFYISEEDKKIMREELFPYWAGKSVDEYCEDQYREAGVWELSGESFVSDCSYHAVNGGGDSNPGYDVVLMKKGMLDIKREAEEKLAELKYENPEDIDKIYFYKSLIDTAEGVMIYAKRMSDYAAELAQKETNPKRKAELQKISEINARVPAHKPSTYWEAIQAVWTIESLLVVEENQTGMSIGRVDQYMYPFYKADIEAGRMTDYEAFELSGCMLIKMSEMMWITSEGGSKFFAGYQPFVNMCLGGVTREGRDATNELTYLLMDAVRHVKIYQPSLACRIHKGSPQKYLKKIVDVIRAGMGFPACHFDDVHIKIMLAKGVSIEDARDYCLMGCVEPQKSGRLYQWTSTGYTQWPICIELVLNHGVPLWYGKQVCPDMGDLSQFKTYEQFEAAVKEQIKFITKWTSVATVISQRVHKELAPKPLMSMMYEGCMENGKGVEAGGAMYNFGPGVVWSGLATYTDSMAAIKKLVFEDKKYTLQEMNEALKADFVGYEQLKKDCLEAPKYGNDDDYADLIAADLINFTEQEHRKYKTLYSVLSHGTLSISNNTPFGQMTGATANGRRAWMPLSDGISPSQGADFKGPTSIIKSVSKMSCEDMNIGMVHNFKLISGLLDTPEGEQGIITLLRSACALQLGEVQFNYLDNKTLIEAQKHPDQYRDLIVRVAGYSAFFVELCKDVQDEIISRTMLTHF
# Text: In each bacterium, CutC was modified into its activated form by a cognate activating enzyme, CutD (protein EDU36696.1 for C. sporogenes; protein WP_004249185.1 for P. mirabilis). […] Trimethylamine may subsequently be converted by human enzymes such as flavin monooxygenase 3 to trimethylamine N-oxide, which might be associated with negative health consequences in humans.
# A compound's ability to inhibit CutC from Proteus mirabilis and C. sporogenes from converting choline into trimethylamine was tested in cells as described. A BHI blood plate was inoculated with a frozen stock of Proteus mirabilis or Clostridium sporogenes under anaerobic conditions. A single colony was isolated from the plate and inoculated into 5 mL BHI supplemented with 1 mM choline under anaerobic conditions. The liquid cultures were grown overnight at 37° C.
# To prepare each sample, 300 μL of the saturated culture was then inoculated into a 30 mL dilution blank under anaerobic conditions. 1 mM (trimethyl-d9)-choline and a sufficient amount of a compound to obtain a final concentration of 10 μM were added to the inoculated dilution blank. […] The mixture was incubated at 37° C. for 5 h. […] After centrifugation, the samples were analyzed by LCMS to determine the amount of d9-TMA produced.
# CutC/D enzyme = test: Acute mouse model (plasma TMAO on choline diet); assay type: in vivo, male C57BL/6 mice
# Protocol: The following acute mouse model may be used to determine inhibition of the CutC/D enzyme and thus the inhibition of the formation of trimethylamine (TMA) from choline.
# On day 1, male C57BL/6 mice were given a chemically defined diet (Tekland Global Rodent Diet 2018) containing 1.0% choline (g/g) for the duration of the experiment. Concurrently on day 1, mice were orally gavaged with 200 μL of compounds of interest (formulated in water). Mice were orally gavaged with the compounds and vehicle control again on day 2 and day 3 at a fixed time. Twenty hours after the last gavage, mice were sacrificed, and plasma was collected and prepared for detection of trimethylamine-N-oxide (TMAO) via liquid chromatography with on-line tandem mass spectrometry (LC-MS/MS). Food consumption and mouse weight were measured each day.
# Plasma samples were prepared for LCMS as follows: An aliquot of 20 μL plasma sample was protein precipitated with 200 μL internal standard solution (100 ng/mL Labetalol & 100 ng/mL Tolbutamide & 100 ng/mL Diclofenac in acetonitrile, the mixture was vortex-mixed and centrifuged at 4000 rpm for 15 min, 4° C. An aliquot of 100 μL supernatant was transferred to the sample plate for LCMS injection. 1 μL of sample was injected onto an LC column for TMAO LCMS analysis.
# Concentrations of TMAO were determined with a calibration curve ranging 0.05-100 μM for d9-TMAO in control plasma.
# [4] = pH 7.4, Caco-2, apical to basolateral, 1 μM, 2 hours, 37° C., read-out: Papp A-B
# [5] = pH 7.4, Caco-2, basolateral to apical, 1 μM, 2 hours, 37° C., read-out: Papp B-A
compound,measurement,setting,value
"C#CC[N+](C)(CF)CCO[C@@H]1O[C@H](COC(C)=O)[C@@H](OC(C)=O)[C@H](OC(C)=O)[C@H]1OC(C)=O (stereo partly drawn) [Compound 77, (fluoromethyl)(methyl)(prop-2-yn-1-yl)(2-{[(2R,3R,4S,5R,6R)-3,4,5-tris(acetyloxy)-6-[(acetyloxy)methyl]oxan-2-yl]oxy}ethyl)azanium]","Papp A→B at 2 h, 1 µM",[1]; [4],0.218 ×10⁻⁶ cm/s
same,"Papp B→A at 2 h, 1 µM",[1]; [5],0.337 ×10⁻⁶ cm/s
same,IC50,[2],≥ 10000 nM
"C[N+](C)(CCO)CC1CC1.[Br-] [Compound 107, N-(cyclopropylmethyl)-2-hydroxy-N,N-dimethylethan-1-aminium Bromide]","Papp A→B at 2 h, 1 µM",[1]; [4],26.8 ×10⁻⁶ cm/s
same,"Papp B→A at 2 h, 1 µM",[1]; [5],31.1 ×10⁻⁶ cm/s
same,IC50,[2],≥ 10000 nM
same,IC50,[3],≥ 10000 nM
"C[N+]1(CF)CCC[C@H]1CO.[I-] (stereo partly drawn) [Compound 109, (2S)-1-(fluoromethyl)-2-(hydroxymethyl)-1-methylpyrrolidin-1-ium iodide]","Papp A→B at 2 h, 1 µM","[1]; Caco-2, pH 7.4",0.6 ×10⁻⁶ cm/s
same,"Papp B→A at 2 h, 1 µM","[1]; Caco-2, pH 7.4",0.5 ×10⁻⁶ cm/s
same,IC50,[2],620 nM
same,IC50,[3],420 nM
same,% change from vehicle control + choline diet,"CutC/D enzyme; Table 4g, 116 mg/kg oral gavage days 1-3",−90%
same,Mean plasma TMAO,"CutC/D enzyme; Table 4g, 116 mg/kg oral gavage days 1-3, plasma 20 h after last gavage",2.71 µM
"C[N+](C)(CCO)C1CC1.[I-] [Compound 111, N-(2-hydroxyethyl)-N,N-dimethylcyclopropanaminium Iodide]","Papp A→B at 2 h, 1 µM","[1]; Caco-2, pH 7.4",0.8 ×10⁻⁶ cm/s
same,"Papp B→A at 2 h, 1 µM","[1]; Caco-2, pH 7.4",0.8 ×10⁻⁶ cm/s
same,IC50,[2],140 nM and 270 nM
same,IC50,[3],220 nM
"C#CC[N+]1(C)CCCN1.[I-] (stereo not drawn) [Compound 125, 1-methyl-1-(prop-2-yn-1-yl)pyrazolidin-1-ium Iodide]","Papp A→B at 2 h, 1 µM","[1]; Caco-2, pH 7.4",0.466 ×10⁻⁶ cm/s
same,"Papp B→A at 2 h, 1 µM","[1]; Caco-2, pH 7.4",0.482 ×10⁻⁶ cm/s
same,IC50,[2],190 nM
same,% change from vehicle control + choline diet,"CutC/D enzyme; Table 4g, 9.8 mg/kg oral gavage days 1-3",−6%
same,Mean plasma TMAO,"CutC/D enzyme; Table 4g, 9.8 mg/kg oral gavage days 1-3, plasma 20 h after last gavage",26.2 µM
same,% change from vehicle control + choline diet,"CutC/D enzyme; Table 4g, 97.7 mg/kg oral gavage days 1-3",18%
same,Mean plasma TMAO,"CutC/D enzyme; Table 4g, 97.7 mg/kg oral gavage days 1-3, plasma 20 h after last gavage",32.8 µM
"C#CC[N+](C)(C)CCO.[Br-] [Compound J60, N-(2-hydroxyethyl)-N,N-dimethylprop-2-yn-1-aminium Iodide]","Papp A→B at 2 h, 1 µM",[1]; [4],11.1 ×10⁻⁶ cm/s
same,"Papp B→A at 2 h, 1 µM",[1]; [5],6.23 ×10⁻⁶ cm/s
same,% change from vehicle control + choline diet,"CutC/D enzyme; Table 4a, 10 mg/kg oral gavage days 1-3",−28.46%
same,Mean plasma TMAO,"CutC/D enzyme; Table 4a, 10 mg/kg oral gavage days 1-3, plasma 20 h after last gavage",31.06 µM
same,% change from vehicle control + choline diet,"CutC/D enzyme; Table 4a, 33 mg/kg oral gavage days 1-3",−60.39%
same,Mean plasma TMAO,"CutC/D enzyme; Table 4a, 33 mg/kg oral gavage days 1-3, plasma 20 h after last gavage",17.20 µM
same,% change from vehicle control + choline diet,"CutC/D enzyme; Table 4a, 100 mg/kg oral gavage days 1-3",−87.29%
same,Mean plasma TMAO,"CutC/D enzyme; Table 4a, 100 mg/kg oral gavage days 1-3, plasma 20 h after last gavage",5.52 µM
same,Mean plasma TMAO,"CutC/D enzyme; Table 4b, 10 mg/kg oral gavage days 1-3, plasma 20 h after last gavage, 10 mg/kg",27.4 µM and 24.7 µM
same,% change from vehicle control + choline diet,"CutC/D enzyme; Table 4c, 100 mg/kg oral gavage days 1-3",−74.22%
same,Mean plasma TMAO,"CutC/D enzyme; Table 4c, 100 mg/kg oral gavage days 1-3, plasma 20 h after last gavage",5.41 µM
same,% change from vehicle control + choline diet,"CutC/D enzyme; Table 4e, 100 mg/kg oral gavage days 1-3",−86%
same,Mean plasma TMAO,"CutC/D enzyme; Table 4e, 100 mg/kg oral gavage days 1-3, plasma 20 h after last gavage",3.81 µM
same,% change from vehicle control + choline diet,"CutC/D enzyme; Table 4f, 100 mg/kg oral gavage days 1-3",−81%
same,Mean plasma TMAO,"CutC/D enzyme; Table 4f, 100 mg/kg oral gavage days 1-3, plasma 20 h after last gavage",6.20 µM
same,% change from vehicle control + choline diet,"CutC/D enzyme; Table 4g, 100 mg/kg oral gavage days 1-3",−53%
same,Mean plasma TMAO,"CutC/D enzyme; Table 4g, 100 mg/kg oral gavage days 1-3, plasma 20 h after last gavage",13.1 µM
same,% change from vehicle control + choline diet,"CutC/D enzyme; Table 4h, 100 mg/kg oral gavage days 1-3",−80%
same,Mean plasma TMAO,"CutC/D enzyme; Table 4h, 100 mg/kg oral gavage days 1-3, plasma 20 h after last gavage",8.72 µM
same,% change from vehicle control + choline diet,"CutC/D enzyme; Table 4d, 100 mg/kg oral gavage days 1-3",−68%
same,Mean plasma TMAO,"CutC/D enzyme; Table 4d, 100 mg/kg oral gavage days 1-3, plasma 20 h after last gavage",6.00 µM
